Activity data for one molecule are collected here from paper PMC10787677, “Characterization of a novel aspartic protease from Trichoderma asperellum for the preparation of duck blood peptides” (Applied Microbiology and Biotechnology, 2024).

Molecules are shown by their SMILES. Non-standard residues stand in square brackets, D forms with d. Residues, ends and D or L forms follow the SMILES beside them. *: point of attachment. Sta = CC(C)C[C@H](N)[C@@H](O)CC(=O)O; Isovaleryl = CC(C)CC(=O)*

The target in this assay is T1, TaproA1 (Trichoderma asperellum, UniProt A0A6V8QUH5).
T1 construct: mature enzyme about 36 kDa; precursor 521 residues; purified on Q-Sepharose Fast Flow
In words: residual casein hydrolysis after […] min preincubation, Folin phenol read-out. The following applies: read-out: Relative activity ^b (%). It counts as biochemical.

T1 sequence (A0A6V8QUH5 189-517 limits assumed): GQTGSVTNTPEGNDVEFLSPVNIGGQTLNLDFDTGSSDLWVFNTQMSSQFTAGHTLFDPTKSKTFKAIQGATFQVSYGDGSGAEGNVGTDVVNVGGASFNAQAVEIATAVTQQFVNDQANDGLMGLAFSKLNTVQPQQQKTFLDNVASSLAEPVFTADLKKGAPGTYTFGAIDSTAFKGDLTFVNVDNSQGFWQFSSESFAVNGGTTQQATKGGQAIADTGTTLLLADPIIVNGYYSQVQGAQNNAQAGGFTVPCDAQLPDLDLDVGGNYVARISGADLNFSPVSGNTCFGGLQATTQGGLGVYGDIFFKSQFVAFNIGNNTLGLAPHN

`CC(C)CC(=O)N[C@H](C(=O)N[C@H](C(=O)N[C@@H](CC(C)C)[C@@H](O)CC(=O)N[C@@H](C)C(=O)N[C@@H](CC(C)C)[C@@H](O)CC(=O)O)C(C)C)C(C)C` [Pepstatin A] (Isovaleryl-VV[Sta]A[Sta]-OH): the activity at 10 µM stood at 0.7 ± 0.1%.
